Where two headings read alike, the source gives them in different places.
Legend:
[1] = tested on: HCV 1b-BB7 subgenomic replicon; assay: microbe, parasite or virus in culture; format: cell-based, HCV genotype 1b; conditions: Hepatitis C virus, stable replicon
[2] = tested on: HCV 1a-H77 subgenomic replicon; assay: microbe, parasite or virus in culture; format: cell-based, HCV genotype 1a; conditions: Hepatitis C virus, stable replicon
[3] = tested on: chimeric replicon with genotype 2b NS5B; assay: microbe, parasite or virus in culture; format: cell-based, HCV genotype 2b; conditions: Hepatitis C virus, read-out: 2b chimera 5% FBS EC50
[4] = tested on: chimeric replicon with genotype 3a NS5B; assay: microbe, parasite or virus in culture; format: cell-based, HCV genotype 3a; conditions: Hepatitis C virus, read-out: 3a chimera 5% FBS EC50
[5] = target: T1, HCV NS5B polymerase 1a-H77-C316Y (Hepatitis C virus genotype 1a, UniProt P27958, C2736Y); assay: biochemical; design: species or system HCV genotype 1a
T1 construct: six-histidine tag; made in house; host or cells: E. coli
T1 sequence (P27958 2421-2990 C2736Y): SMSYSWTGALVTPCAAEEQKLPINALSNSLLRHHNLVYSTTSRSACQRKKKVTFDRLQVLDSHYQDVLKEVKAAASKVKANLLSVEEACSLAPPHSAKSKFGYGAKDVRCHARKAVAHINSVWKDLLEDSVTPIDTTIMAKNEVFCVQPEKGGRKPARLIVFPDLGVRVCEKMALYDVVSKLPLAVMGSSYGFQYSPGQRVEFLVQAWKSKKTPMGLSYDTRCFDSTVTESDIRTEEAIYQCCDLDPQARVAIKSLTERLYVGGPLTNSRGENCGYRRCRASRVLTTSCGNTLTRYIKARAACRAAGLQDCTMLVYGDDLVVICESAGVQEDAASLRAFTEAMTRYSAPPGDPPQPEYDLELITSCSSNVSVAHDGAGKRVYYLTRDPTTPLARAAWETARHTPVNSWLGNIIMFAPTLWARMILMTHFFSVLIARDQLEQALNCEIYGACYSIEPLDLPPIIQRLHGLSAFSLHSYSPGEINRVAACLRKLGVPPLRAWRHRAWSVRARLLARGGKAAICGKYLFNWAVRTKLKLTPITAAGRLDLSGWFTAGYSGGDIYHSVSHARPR
How it was run: (§1)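 Recombinant NS5B (residues 1–570, His-tagged, E. coli-expressed) copied 5 nM of a 2.1 kb HCV 1b negative-strand 3′-end RNA template with 20 μM CTP, 20 μM ATP and 0.284 μM [3H]UTP for 3 h at 30 °C. Spermine-precipitated RNA was filter-captured and counted, and IC50 was fitted by nonlinear regression.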

[6] = target: T2, HCV NS5B polymerase 1a-H77 (Hepatitis C virus genotype 1a, UniProt P27958); assay: biochemical; design: species or system HCV genotype 1a; conditions: enzyme, strain 1a H77; read-out: HCV Polymerase Strain 1a H77 IC50
T2 construct: six-histidine tag; made in house; host or cells: E. coli
T2 sequence (P27958 2421-2990): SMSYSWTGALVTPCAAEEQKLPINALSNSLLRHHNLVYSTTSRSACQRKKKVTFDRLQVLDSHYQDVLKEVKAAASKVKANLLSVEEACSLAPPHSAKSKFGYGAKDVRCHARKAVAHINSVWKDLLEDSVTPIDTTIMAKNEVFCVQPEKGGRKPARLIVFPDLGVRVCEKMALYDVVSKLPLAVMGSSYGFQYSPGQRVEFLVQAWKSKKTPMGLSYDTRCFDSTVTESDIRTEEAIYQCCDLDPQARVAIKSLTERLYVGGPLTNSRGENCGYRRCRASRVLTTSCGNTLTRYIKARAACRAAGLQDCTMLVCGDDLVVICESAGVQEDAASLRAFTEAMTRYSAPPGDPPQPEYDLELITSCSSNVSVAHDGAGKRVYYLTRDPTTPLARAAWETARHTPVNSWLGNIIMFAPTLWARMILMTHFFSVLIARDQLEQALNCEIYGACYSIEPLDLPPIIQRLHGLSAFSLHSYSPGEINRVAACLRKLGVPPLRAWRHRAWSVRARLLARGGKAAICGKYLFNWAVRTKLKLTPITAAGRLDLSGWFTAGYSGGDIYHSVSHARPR
How it was run: as §1

[7] = tested on: HCV NS5B polymerase 1a-H77-C316Y; assay: biochemical; design: species or system HCV genotype 1a; conditions: ratio of enzyme IC50s, 1a H77-C316Y / 1a H77
How it was run: as §1

[8] = tested on: HCV 1a-H77 transient subgenomic replicon in Huh-7 derived cell line; assay: microbe, parasite or virus in culture; format: cell-based, HCV genotype 1a; conditions: Hepatitis C virus, Huh-7; transient replicon, 5% FBS; read-out: Transient Replicon 1a H77 5% FBS EC50
Protocol: (§2) In addition to the stable replicon inhibition assays, transient replicon assays were performed. Transient replicons are identical to the 1a-H77 and 1a-H77-C316Y constructs, except they lack the Neo gene, making it impossible to establish stable cell lines. A T7 Megascript RNA synthesis kit (Ambion) was used to transcribe the HCV subgenomic RNA. The HCV RNA was then precipitated with lithium chloride according to manufacturer's instructions. The HCV subgenomic replicon RNA was transfected via electroporation into a Huh-7 derived cell line as described (Middleton T, et al. J. Virological Methods 2007; 145(2): 137-145). Transfected cells were diluted and plated in 96 well plates at 5×10^3 cells per well in DMEM. Four hours post-transfection, the wells from one plate were harvested for luciferase measurement. This plate provides a measure of the amount of translatable input RNA, and therefore transfection efficiency. To the wells of the remaining plates, a 3-fold dilution series of test compounds was added in DMSO (0.5% DMSO final concentration), and plates were incubated at 37° C., 5% CO2 in a humidified incubator for 4 days. After this period, the media was removed and the plates were washed with 100 μL phosphate-buffered saline per well. For the luciferase assay, 30 μL of Passive Lysis buffer (Promega) was added to each well, and then the plates were incubated for 15 minutes with rocking to lyse the cells. Luciferin solution (100 μL, Promega) was added to each well, and luciferase activity was measured with a Victor II luminometer (Perkin-Elmer). The EC50 values were calculated using GraphPad Prism 4 software.

[9] = tested on: chimeric replicon with genotype 4a NS5B; assay: microbe, parasite or virus in culture; format: cell-based, HCV genotype 4a; conditions: Hepatitis C virus, read-out: 4a chimera 5% FBS EC50
[10] = target: T3, HCV NS5B polymerase 1b BK strain (Hepatitis C virus genotype 1b, UniProt P26663); assay: HCV NS5B polymerase enzymatic inhibition assay, strain 1b BK; format: biochemical; conditions: enzyme, strain 1b BK; read-out: HCV Polymerase Strain 1b BK IC50
T3 construct: six-histidine tag; made in house; host or cells: E. coli
T3 sequence (P26663 2420-2989): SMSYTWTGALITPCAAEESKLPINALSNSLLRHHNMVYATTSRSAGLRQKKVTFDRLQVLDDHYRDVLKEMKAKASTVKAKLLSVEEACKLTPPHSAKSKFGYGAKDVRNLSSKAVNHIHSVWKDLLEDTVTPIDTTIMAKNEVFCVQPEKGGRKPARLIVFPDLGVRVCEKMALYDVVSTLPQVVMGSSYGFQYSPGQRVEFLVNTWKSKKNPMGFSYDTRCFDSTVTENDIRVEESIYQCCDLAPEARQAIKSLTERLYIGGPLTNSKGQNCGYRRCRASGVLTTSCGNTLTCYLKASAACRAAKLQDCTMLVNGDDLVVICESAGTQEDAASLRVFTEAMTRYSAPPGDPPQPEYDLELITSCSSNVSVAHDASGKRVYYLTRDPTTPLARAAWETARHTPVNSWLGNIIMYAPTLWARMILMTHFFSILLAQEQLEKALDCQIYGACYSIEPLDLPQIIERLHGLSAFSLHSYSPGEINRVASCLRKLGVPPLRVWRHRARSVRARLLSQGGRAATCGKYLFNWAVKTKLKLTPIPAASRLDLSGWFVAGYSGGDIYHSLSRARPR
How it was run: as §1

[11] = tested on: chimeric replicon with 2a-J6CF-derived NS5B; assay: microbe, parasite or virus in culture; format: cell-based, HCV genotype 2a; conditions: Hepatitis C virus, read-out: 2a chimera 5% FBS EC50
[12] = tested on: HCV 1a-H77-C316Y transient subgenomic replicon in Huh-7 derived cell line; assay: microbe, parasite or virus in culture; format: cell-based, HCV genotype 1a; conditions: for EC50: Hepatitis C virus, Huh-7, read-out: Transient Replicon 1a H77-C316Y 5% FBS EC50; for Transient Replicon Fold Resistance C316Y/1a: ratio of transient replicon EC50s, C316Y / 1a H77
Protocol: as §2

[13] = strain 1b BB7, 5% FBS + 40% human plasma, read-out: 1b BB7 5% FBS + 40% Human Plasma EC50
[14] = strain 1b BB7, 5% FBS, no human plasma, read-out: 1b BB7 5% FBS EC50
[15] = strain 1b BB7, 5% FBS, read-out: 1b BB7 5% FBS EC50
[16] = 5% FBS, absence of human plasma, read-out: Stable Replicon 1a H77 5% FBS EC50
[17] = strain 1a H77, 5% FBS + 40% human plasma, read-out: 1a H77 5% FBS + 40% Human Plasma EC50
[18] = strain 1a H77, 5% FBS, no human plasma, read-out: 1a H77 5% FBS EC50
[19] = strain 1a H77, 5% FBS, read-out: 1a H77 5% FBS EC50

SMILES	EC50 [1, 13]	EC50 [1, 14]	EC50 [1, 15]	EC50 [2, 16]	EC50 [2, 17]	EC50 [2, 18]	EC50 [2, 19]	EC50 [3]	EC50 [4]	IC50 [5]	IC50 [6]	C316Y/1a Fold Resistance [7]	EC50 [8]	EC50 [9]	IC50 [10]	EC50 [11]	EC50 [12]	Transient Replicon Fold Resistance C316Y/1a [12]
CS(=O)(=O)Nc1cc2oc(-c3ccc(F)cc3)c(-c3ncc[nH]3)c2cc1C1CC1 [Example 1, N-[5-cyclopropyl-2-(4-fluorophenyl)-3-(1H-imidazol-2-yl)-1-benzofuran-6-yl]methanesulfonamide]	281 nM	18.2 nM	18.2 nM	207 nM	4710 nM	207 nM	207 nM	219 nM	13 nM	1800 nM	5.9 nM	304 fold	192 nM	242 nM	87 nM	223 nM	–	–
CC(C)CCN(c1cc2oc(-c3ccc(F)cc3)c(C3=NOC(C)N3)c2cc1C1CC1)S(C)(=O)=O (centres unmarked) [Example 14, N-[5-cyclopropyl-2-(4-fluorophenyl)-3-(5-methyl-4,5-dihydro-1,2,4-oxadiazol-3-yl)-1-benzofuran-6-yl]-N-(3-methylbutyl)methanesulfonamide]	1060 nM	93.5 nM	93.5 nM	24.3 nM	805 nM	24.3 nM	24.3 nM	–	–	70 nM	8.5 nM	8 fold	28.1 nM	–	35 nM	–	152 nM	5 fold
CS(=O)(=O)N(Cc1cnc(-c2ccc3[nH]ccc3c2)s1)c1cc2oc(-c3ccc(F)cc3)c(-c3ncc[nH]3)c2cc1C1CC1 [Example 31, N-[5-cyclopropyl-2-(4-fluorophenyl)-3-(1H-imidazol-2-yl)-1-benzofuran-6-yl]-N-{[2-(1H-indol-5-yl)-1,3-thiazol-5-yl]methyl}methanesulfonamide]	201 nM	28.4 nM	28.4 nM	41.6 nM	382 nM	41.6 nM	41.6 nM	151 nM	–	172 nM	3.5 nM	50 fold	30.9 nM	84 nM	7 nM	185 nM	828 nM	27 fold
CCCN(c1cc2oc(-c3ccc(F)cc3)c(-c3ncc[nH]3)c2cc1C1CC1)S(C)(=O)=O [Example 64, N-[5-cyclopropyl-2-(4-fluorophenyl)-3-(1H-imidazol-2-yl)-1-benzofuran-6-yl]-N-propylmethanesulfonamide]	110 nM	12 nM	12 nM	24.3 nM	267 nM	24.3 nM	24.3 nM	67.4 nM	1.6 nM	180 nM	5.3 nM	34 fold	20.2 nM	125 nM	29 nM	57.9 nM	–	–
CC(C)CN(c1cc2oc(-c3ccc(F)cc3)c(-c3ncc[nH]3)c2cc1C1CC1)S(C)(=O)=O [Example 66, N-[5-cyclopropyl-2-(4-fluorophenyl)-3-(1H-imidazol-2-yl)-1-benzofuran-6-yl]-N-isobutylmethanesulfonamide]	569 nM	56.4 nM	56.4 nM	59.8 nM	683 nM	59.8 nM	59.8 nM	293 nM	83.9 nM	901 nM	5.9 nM	152 fold	68.9 nM	318 nM	70 nM	215 nM	–	–
CS(=O)(=O)N(CCCC(=O)O)c1cc2oc(-c3ccc(F)cc3)c(C3=NOCCN3)c2cc1C1CC1 [Example 135, 4-{[5-cyclopropyl-3-(5,6-dihydro-4H-1,2,4-oxadiazin-3-yl)-2-(4-fluorophenyl)-1-benzofuran-6-yl](methylsulfonyl)amino}butanoic acid]	5520 nM	783 nM	783 nM	969 nM	7910 nM	969 nM	969 nM	–	–	41 nM	3.9 nM	11 fold	372 nM	–	28 nM	–	3040 nM	8 fold
COc1ccc(CN(c2cc3oc(-c4ccc(F)cc4)c(C4=NOC(C)N4)c3cc2C2CC2)S(C)(=O)=O)cc1 (centres unmarked) [Example 151, N-[5-cyclopropyl-2-(4-fluorophenyl)-3-(5-methyl-4,5-dihydro-1,2,4-oxadiazol-3-yl)-1-benzofuran-6-yl]-N-(4-methoxybenzyl)methanesulfonamide]	1500 nM	30 nM	30 nM	119 nM	2280 nM	119 nM	119 nM	–	–	102 nM	9 nM	11 fold	33.2 nM	–	48 nM	–	2930 nM	88 fold
CS(=O)(=O)N(CCCc1noc(=S)[nH]1)c1cc2oc(-c3ccc(F)cc3)c(C3=NOCCN3)c2cc1C1CC1 [Example 183, N-[5-cyclopropyl-3-(5,6-dihydro-4H-1,2,4-oxadiazin-3-yl)-2-(4-fluorophenyl)-1-benzofuran-6-yl]-N-[3-(5-thioxo-4,5-dihydro-1,2,4-oxadiazol-3-yl)propyl]methanesulfonamide]	2200 nM	88 nM	88 nM	104 nM	2060 nM	104 nM	104 nM	1000 nM	306 nM	22 nM	6 nM	4 fold	–	> 1000 nM	39 nM	1000 nM	–	–
CS(=O)(=O)N(CCCc1nsc(=O)[nH]1)c1cc2oc(-c3ccc(F)cc3)c(C3=NOCCN3)c2cc1C1CC1 [Example 184, N-[5-cyclopropyl-3-(5,6-dihydro-4H-1,2,4-oxadiazin-3-yl)-2-(4-fluorophenyl)-1-benzofuran-6-yl]-N-[3-(5-oxo-4,5-dihydro-1,2,4-thiadiazol-3-yl)propyl]methanesulfonamide]	1090 nM	28 nM	28 nM	69.7 nM	1870 nM	69.7 nM	69.7 nM	353 nM	84 nM	599 nM	17 nM	35 fold	–	507 nM	156 nM	539 nM	–	–

From patent publication US20160355530A1, “HEPATITIS C INHIBITORS AND USES THEREOF” (AbbVie Inc., priority 2010, published 2016)
